Reference: ChEMBL document CHEMBL1151380, “Recent Studies on Bioactive Compounds From Plants” (J Nat Prod, 1982)
The source made the active and inactive calls. The rule behind the calls is not given here.

Legend:
[1] = test system: Epilachna varivestis; assay: Antifeedant activity in Epilachna varivestis by choice test; type: functional, organism-based
[2] = test system: Schistocerca nitens; assay: Antifeedant activity in Schistocerca vaga by choice test; type: functional, organism-based
[3] = test system: Spodoptera exempta; assay: Antifeedant activity in Spodoptera exempta by choice test; type: functional
[4] = test system: Sclerotinia sclerotiorum; assay: Antimicrobial activity against Sclerotinia libertiana; type: functional
[5] = test system: Schistocerca gregaria; assay: Antifeedant activity in Schistocerca gregaria at 0.01% dry weight of fiber disc containing 5% sucrose by choice test; type: functional
[6] = test system: Cyberlindnera jadinii; assay: Antimicrobial activity against Candida utilis; type: functional
[7] = Acute toxicity in sc dosed mouse; type: organism-based; settings: in vivo
[8] = test system: Biomphalaria glabrata; assay: Molluscicidal activity against Biomphalaria glabrata after 2 hrs; type: functional
[9] = test system: Locusta migratoria; assay: Antifeedant activity in Locusta migratoria at 0.01% dry weight of fiber disc containing 5% sucrose by choice test; type: functional
[10] = test system: Mucor mucedo; assay: Antimicrobial activity against Mucor mucedo; type: functional
[11] = test system: Biomphalaria pfeifferi; assay: Molluscicidal activity against Biomphalaria pfeifferi after 2 hrs; type: functional
[12] = test system: Manduca sexta; assay: Antifeedant activity in Manduca sexta by choice test; type: functional, organism-based
[13] = test system: Saccharomyces cerevisiae; assay: Antimicrobial activity against Saccharomyces cerevisiae; type: functional
[14] = test system: Radix natalensis; assay: Molluscicidal activity against Lymnaea natalensis after 2 hrs; type: functional
[15] = test system: Spodoptera eridania; assay: Antifeedant activity in Spodoptera eridania by choice test; type: functional, organism-based
[16] = test system: KB; assay: Cytotoxicity against human KB cells; type: functional
[17] = test system: Spodoptera littoralis; assay: Antifeedant activity in Spodoptera littoralis by choice test; type: functional

CC1(C)CCC[C@@]2(C)[C@H]1CC=C(C=O)[C@]2(O)C=O [WARBURGANAL]
Activity [1]: inactive
Activity [2]: inactive
Activity [3]: 0.1 ppm
Activity [4]: 50 µg/mL
Activity [5]: 85%
Activity [6]: 3.1 µg/mL
LD50 [7]: 20.4 mg/kg
Activity [8]: 5 ppm
Activity [9]: 85%
Activity [10]: 100 µg/mL
Activity [11]: 5 ppm
Activity [12]: inactive
Activity [13]: 12.5 µg/mL
Activity [14]: 10 ppm
Activity [15]: inactive
Activity [16]: 0.01 µg/mL
Activity [17]: 10 ppm
